Assay results published in ChEMBL document CHEMBL1201862, “PubChem BioAssay data set” (2004).
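Method: 48-hour compound exposure of cells in 96-well plates, five concentrations, linear interpolation of endpoints. Abbreviation: GI50, concentration required for 50% inhibition of growth.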 Calls of active or inactive are those of the source. Cut-off read from the data, not from the text of the source: active = GI50 up to about 1.1 µM and inactive = higher.

Experiments:
Test in all cases: inhibition of tumour cell growth, NCI panel, 48 h
ACHN = tested on: ACHN
CAKI-1 = tested on: CAKI-1
EKVX = tested on: EKVX
HL-60 = tested on: HL-60
HT-29 = tested on: HT-29
K562 = tested on: K562
KM12 = tested on: KM12
LOX IMVI = tested on: LOX IMVI
MDA-MB-231 = tested on: MDA-MB-231
MOLT-4 = tested on: MOLT-4
SF-268 = tested on: SF-268
SF-539 = tested on: SF-539
SK-MEL-5 = tested on: SK-MEL-5
SNB-19 = tested on: SNB-19
SNB-75 = tested on: SNB-75
SR = tested on: SR
U-251 = tested on: U-251
UACC-257 = tested on: UACC-257
UACC-62 = tested on: UACC-62
UO-31 = tested on: UO-31

Structure (SMILES)	GI50 (ACHN)	GI50 (CAKI-1)	GI50 (EKVX)	GI50 (HL-60)	GI50 (HT-29)	GI50 (K562)	GI50 (KM12)	GI50 (LOX IMVI)	GI50 (MDA-MB-231)	GI50 (MOLT-4)	GI50 (SF-268)	GI50 (SF-539)	GI50 (SK-MEL-5)	GI50 (SNB-19)	GI50 (SNB-75)	GI50 (SR)	GI50 (U-251)	GI50 (UACC-257)	GI50 (UACC-62)	GI50 (UO-31)
COc1ccc2c(c1)Cc1cc(/N=[N+](\[O-])c3ccc4c(c3)Cc3cc(OC)ccc3-4)ccc1-2	37.2 µM (inactive)	36.2 µM (inactive)	11.3 µM (inactive)	7.48 µM (inactive)	15.6 µM (inactive)	38.8 µM (inactive)	29.4 µM (inactive)	33.1 µM (inactive)	43 µM (inactive)	36.6 µM (inactive)	82.8 µM (inactive)	10.2 µM (inactive)	18.1 µM (inactive)	51.8 µM (inactive)	39.2 µM (inactive)	16.4 µM (inactive)	16.9 µM (inactive)	12.9 µM (inactive)	24.5 µM (inactive)	24.9 µM (inactive)
CC(Oc1ccccc1Cl)C(=O)NN1C(=O)CC(=O)N(c2ccccc2)C1=S (stereo not given)	38.3 µM (inactive)	41.2 µM (inactive)	57.1 µM (inactive)	18.7 µM (inactive)	54.5 µM (inactive)	33.7 µM (inactive)	60.1 µM (inactive)	38.4 µM (inactive)	42.7 µM (inactive)	30 µM (inactive)	86.7 µM (inactive)	66.7 µM (inactive)	42.8 µM (inactive)	71.1 µM (inactive)	49.1 µM (inactive)	33.3 µM (inactive)	41 µM (inactive)	55.2 µM (inactive)	33.3 µM (inactive)	53 µM (inactive)
O=C1c2ccccc2CC12CCC1(CC2)OCCO1	> 100 µM (inactive)	> 100 µM (inactive)	> 100 µM (inactive)	> 100 µM (inactive)	> 100 µM (inactive)	> 100 µM (inactive)	> 100 µM (inactive)	> 100 µM (inactive)	> 100 µM (inactive)	> 100 µM (inactive)	> 100 µM (inactive)	> 100 µM (inactive)	> 10 µM (inactive)	> 100 µM (inactive)	> 100 µM (inactive)	> 100 µM (inactive)	> 100 µM (inactive)	> 100 µM (inactive)	> 100 µM (inactive)	> 100 µM (inactive)
Cn1c2ccccc2c(=O)c2c(O)cc3c(c21)CC(C1(C)CO1)O3 (stereo not given)	2 µM (inactive)	2.99 µM (inactive)	3.08 µM (inactive)	0.0495 µM (active)	4.41 µM (inactive)	0.26 µM (active)	2.41 µM (inactive)	< 0.0111 µM (active)	2.03 µM (inactive)	0.0665 µM (active)	0.942 µM (active)	3.2 µM (inactive)	1.79 µM (inactive)	10.4 µM (inactive)	7.28 µM (inactive)	0.111 µM (active)	3.16 µM (inactive)	3.93 µM (inactive)	2.16 µM (inactive)	1.42 µM (inactive)
CN(C)Cc1c(O)ccc2c1c1c(n2C)C(=O)c2ccccc2C1=O	2.31 µM (inactive)	4.52 µM (inactive)	13.5 µM (inactive)	7.38 µM (inactive)	1.4 µM (inactive)	3.12 µM (inactive)	3.2 µM (inactive)	1.79 µM (inactive)	7.8 µM (inactive)	0.544 µM (active)	7.85 µM (inactive)	10.3 µM (inactive)	6.49 µM (inactive)	6.19 µM (inactive)	12.3 µM (inactive)	1.06 µM (active)	4.52 µM (inactive)	5.24 µM (inactive)	3.55 µM (inactive)	4.01 µM (inactive)
CC(Nc1ncc2c(n1)-c1ccccc1OC2)C(=O)O (stereo not given)	> 100 µM (inactive)	30.8 µM (inactive)	44.1 µM (inactive)	6.89 µM (inactive)	39.5 µM (inactive)	99.8 µM (inactive)	> 100 µM (inactive)	> 100 µM (inactive)	92.7 µM (inactive)	> 100 µM (inactive)	> 100 µM (inactive)	> 100 µM (inactive)	> 100 µM (inactive)	> 100 µM (inactive)	40.7 µM (inactive)	48.5 µM (inactive)	> 100 µM (inactive)	60.3 µM (inactive)	> 100 µM (inactive)	41.2 µM (inactive)
C[C@]12CCNC(=O)C=C1CC[C@@H]1C2CC[C@@]2(C)C1CC[C@@H]2OC(=O)COc1ccc(N(CCCl)CCCl)cc1 (stereo not given in full)	0.982 µM (active)	4.15 µM (inactive)	16.1 µM (inactive)	1.32 µM (inactive)	8.59 µM (inactive)	2.91 µM (inactive)	8.28 µM (inactive)	3.21 µM (inactive)	17.5 µM (inactive)	0.145 µM (active)	2.74 µM (inactive)	2.07 µM (inactive)	7.33 µM (inactive)	10.8 µM (inactive)	8.75 µM (inactive)	0.138 µM (active)	2.03 µM (inactive)	13.8 µM (inactive)	1.28 µM (inactive)	4.76 µM (inactive)
N#CC(C#N)=C/C=C/c1ccccc1[N+](=O)[O-]	4.26 µM (inactive)	5.04 µM (inactive)	> 10 µM (inactive)	6.05 µM (inactive)	6.62 µM (inactive)	3.21 µM (inactive)	5.02 µM (inactive)	2.52 µM (inactive)	2.59 µM (inactive)	4.54 µM (inactive)	> 10 µM (inactive)	6.76 µM (inactive)	3.74 µM (inactive)	> 10 µM (inactive)	> 10 µM (inactive)	3.54 µM (inactive)	> 10 µM (inactive)	2.68 µM (inactive)	3 µM (inactive)	5.78 µM (inactive)
ClCCc1ccccc1CC1=NCCc2ccccc21	30.8 µM (inactive)	33 µM (inactive)	22.1 µM (inactive)	31.3 µM (inactive)	17.4 µM (inactive)	28.4 µM (inactive)	29.3 µM (inactive)	76.7 µM (inactive)	38.1 µM (inactive)	26.9 µM (inactive)	29 µM (inactive)	38.8 µM (inactive)	22.8 µM (inactive)	18.1 µM (inactive)	22 µM (inactive)	> 100 µM (inactive)	31.8 µM (inactive)	34 µM (inactive)	28.6 µM (inactive)	14.4 µM (inactive)
COc1ccc2c(c1)c1c3c(ccc4ncn2c43)N(CCO)CCN=1	0.146 µM (active)	0.247 µM (active)	0.33 µM (active)	0.165 µM (active)	0.136 µM (active)	0.0586 µM (active)	0.26 µM (active)	0.151 µM (active)	0.183 µM (active)	0.026 µM (active)	0.221 µM (active)	0.0893 µM (active)	0.188 µM (active)	0.234 µM (active)	0.306 µM (active)	0.0198 µM (active)	0.254 µM (active)	0.391 µM (active)	0.216 µM (active)	0.104 µM (active)
O=[N+]([O-])c1ccc(C2CC(c3ccccc3Cl)=Nc3ccccc3[S+]2[O-])cc1 (stereo not given)	2.01 µM (inactive)	2.48 µM (inactive)	15 µM (inactive)	1.19 µM (inactive)	2.5 µM (inactive)	1.37 µM (inactive)	3.82 µM (inactive)	2.07 µM (inactive)	2.29 µM (inactive)	1.9 µM (inactive)	8.83 µM (inactive)	7.19 µM (inactive)	5.41 µM (inactive)	3.63 µM (inactive)	5.55 µM (inactive)	2.84 µM (inactive)	3.05 µM (inactive)	15.8 µM (inactive)	2.69 µM (inactive)	2.06 µM (inactive)
Cc1nc(N)sc1/N=N/c1ccccc1Br	43.1 µM (inactive)	43.5 µM (inactive)	18.3 µM (inactive)	> 42.5 µM (inactive)	35.9 µM (inactive)	> 65.9 µM (inactive)	33.5 µM (inactive)	> 48.9 µM (inactive)	37.3 µM (inactive)	> 52.2 µM (inactive)	17.2 µM (inactive)	> 44.1 µM (inactive)	31.3 µM (inactive)	> 44.5 µM (inactive)	10.3 µM (inactive)	35.2 µM (inactive)	31 µM (inactive)	32.9 µM (inactive)	28.6 µM (inactive)	31 µM (inactive)
